US10597388B2, “Pyridazinone herbicides” (FMC CORPORATION, priority 2014, dated 2020)

Columns and labels:
Test in all cases: Test C greenhouse herbicide test, pre- and postemergence
Type in all cases: in vivo
[1] = system: pigweed (Amaranthus retroflexus)
Method in brief: (§1)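 Two application timings: at sowing into a soil/sand blend, and on 2–18 cm seedlings in peat-vermiculite potting mix. A non-phytotoxic, surfactant-containing solvent carried the compounds. Plants were compared with controls and rated visually on 0–100 after 13–15 d.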

[2] = system: corn (Zea mays)
Method in brief: as §1

[3] = system: lambsquarters (Chenopodium album)
Method in brief: as §1

[4] = system: ryegrass, Italian (Italian ryegrass, Lolium multiflorum)
Method in brief: as §1

[5] = system: morningglory (Ipomoea coccinea)
Method in brief: as §1

[6] = system: nutsedge, yellow (yellow nutsedge, Cyperus esculentus)
Method in brief: as §1

[7] = system: velvetleaf (Abutilon theophrasti)
Method in brief: as §1

[8] = system: crabgrass, large (large crabgrass, Digitaria sanguinalis)
Method in brief: as §1

[9] = system: barnyardgrass (Echinochloa crus-galli)
Method in brief: as §1

[10] = system: waterhemp (common waterhemp, Amaranthus rudis)
Method in brief: as §1

[11] = system: blackgrass (Alopecurus myosuroides)
Method in brief: as §1

[12] = system: ragweed (common ragweed, Ambrosia elatior)
Method in brief: as §1

[13] = system: soybean (Glycine max)
Method in brief: as §1

[14] = system: wheat (winter wheat, Triticum aestivum)
Method in brief: as §1

[15] = system: johnsongrass (Sorghum halepense)
Method in brief: as §1

[16] = Postemergence, 125 g ai/ha, scale 0 to 100, 0 is no effect, 100 is complete control
[17] = Postemergence, 250 g ai/ha, scale 0 to 100, 0 no effect, 100 complete control, 13 to 15 d
[18] = Preemergence, 31 g ai/ha, scale 0 to 100, 0 is no effect, 100 is complete control
[19] = Preemergence, 62 g ai/ha, scale 0 to 100, 0 is no effect, 100 is complete control
[20] = Preemergence, 125 g ai/ha, scale 0 to 100, 0 is no effect, 100 is complete control
[21] = Preemergence, 250 g ai/ha, scale 0 to 100, 0 no effect, 100 complete control
[22] = postemergence, 62 g ai/ha, scale 0 to 100, 0 no effect, 100 complete control
[23] = Postemergence, 31 g ai/ha, 0 to 100 scale (0 no effect, 100 complete control)

Cc1sc2ccccc2c1-c1c(O)c(Cl)nn(C)c1=O [Compound 89]
Plant response rating, Pigweed [1, 16]: 80
Plant response rating, Pigweed [1, 17]: 95
Plant response rating, Pigweed [1, 18]: 95
Plant response rating, Pigweed [1, 19]: 100
Plant response rating, Pigweed [1, 20]: 100
Pigweed plant response rating [1, 21]: 100
Pigweed plant response rating [1, 22]: 75
Corn plant response rating [2, 23]: 5
Plant response rating, Corn [2, 16]: 10
Plant response rating, Corn [2, 17]: 5
Plant response rating, Corn [2, 18]: 0
Plant response rating, Corn [2, 19]: 0
Plant response rating, Corn [2, 20]: 0
Corn plant response rating [2, 21]: 0
Corn plant response rating [2, 22]: 5
Plant response rating, Lambsquarters [3, 16]: 100
Plant response rating, Lambsquarters [3, 17]: 100
Plant response rating, Lambsquarters [3, 18]: 40
Plant response rating, Lambsquarters [3, 19]: 85
Plant response rating, Lambsquarters [3, 20]: 98
Lambsquarters plant response rating [3, 21]: 90
Lambsquarters plant response rating [3, 22]: 90
Plant response rating, Ryegrass, Italian [4, 16]: 75
Plant response rating, Ryegrass, Italian [4, 17]: 80
Plant response rating, Ryegrass, Italian [4, 18]: 20
Plant response rating, Ryegrass, Italian [4, 19]: 80
Plant response rating, Ryegrass, Italian [4, 20]: 90
Ryegrass, Italian plant response rating [4, 21]: 90
Ryegrass, Italian plant response rating [4, 22]: 75
Plant response rating, Morningglory [5, 16]: 98
Plant response rating, Morningglory [5, 17]: 98
Plant response rating, Morningglory [5, 18]: 80
Plant response rating, Morningglory [5, 19]: 85
Plant response rating, Morningglory [5, 20]: 85
Morningglory plant response rating [5, 21]: 90
Morningglory plant response rating [5, 22]: 95
Plant response rating, Nutsedge, Yellow [6, 16]: 70
Plant response rating, Nutsedge, Yellow [6, 17]: 75
Plant response rating, Nutsedge, Yellow [6, 18]: 60
Plant response rating, Nutsedge, Yellow [6, 19]: 75
Plant response rating, Nutsedge, Yellow [6, 20]: 80
Nutsedge, Yellow plant response rating [6, 21]: 90
Nutsedge, Yellow plant response rating [6, 22]: 60
Plant response rating, Velvetleaf [7, 16]: 75
Plant response rating, Velvetleaf [7, 17]: 80
Plant response rating, Velvetleaf [7, 18]: 70
Plant response rating, Velvetleaf [7, 19]: 80
Plant response rating, Velvetleaf [7, 20]: 90
Velvetleaf plant response rating [7, 21]: 85
Velvetleaf plant response rating [7, 22]: 75
Plant response rating, Crabgrass, Large [8, 16]: 5
Plant response rating, Crabgrass, Large [8, 17]: 10
Plant response rating, Crabgrass, Large [8, 18]: 20
Plant response rating, Crabgrass, Large [8, 19]: 0
Plant response rating, Crabgrass, Large [8, 20]: 25
Crabgrass, Large plant response rating [8, 21]: 75
Crabgrass, Large plant response rating [8, 22]: 5
Barnyardgrass plant response rating [9, 23]: 5
Plant response rating, Barnyardgrass [9, 16]: 20
Plant response rating, Barnyardgrass [9, 17]: 40
Plant response rating, Barnyardgrass [9, 18]: 5
Plant response rating, Barnyardgrass [9, 19]: 15
Plant response rating, Barnyardgrass [9, 20]: 25
Barnyardgrass plant response rating [9, 21]: 65
Barnyardgrass plant response rating [9, 22]: 15
Plant response rating, Waterhemp [10, 16]: 50
Plant response rating, Waterhemp [10, 17]: 50
Plant response rating, Waterhemp [10, 18]: 75
Plant response rating, Waterhemp [10, 19]: 50
Plant response rating, Waterhemp [10, 20]: 40
Waterhemp plant response rating [10, 21]: 75
Waterhemp plant response rating [10, 22]: 40
Blackgrass plant response rating [11, 23]: 0
Plant response rating, Blackgrass [11, 16]: 0
Plant response rating, Blackgrass [11, 17]: 5
Plant response rating, Blackgrass [11, 18]: 5
Plant response rating, Blackgrass [11, 19]: 40
Plant response rating, Blackgrass [11, 20]: 40
Blackgrass plant response rating [11, 21]: 45
Blackgrass plant response rating [11, 22]: 0
Plant response rating, Ragweed [12, 16]: 90
Plant response rating, Ragweed [12, 17]: 98
Plant response rating, Ragweed [12, 18]: 30
Plant response rating, Ragweed [12, 19]: 80
Plant response rating, Ragweed [12, 20]: 80
Ragweed plant response rating [12, 21]: 90
Ragweed plant response rating [12, 22]: 90
Plant response rating, Soybean [13, 16]: 0
Plant response rating, Soybean [13, 17]: 0
Plant response rating, Soybean [13, 18]: 0
Plant response rating, Soybean [13, 19]: 0
Plant response rating, Soybean [13, 20]: 0
Soybean plant response rating [13, 21]: 5
Soybean plant response rating [13, 22]: 0
Plant response rating, Wheat [14, 16]: 0
Plant response rating, Wheat [14, 17]: 0
Plant response rating, Wheat [14, 18]: 0
Plant response rating, Wheat [14, 19]: 0
Plant response rating, Wheat [14, 20]: 0
Wheat plant response rating [14, 21]: 0
Wheat plant response rating [14, 22]: 0
Plant response rating, Johnsongrass [15, 16]: 0
Plant response rating, Johnsongrass [15, 17]: 5
Plant response rating, Johnsongrass [15, 18]: 0
Plant response rating, Johnsongrass [15, 19]: 75
Plant response rating, Johnsongrass [15, 20]: 0
Johnsongrass plant response rating [15, 21]: 5
Johnsongrass plant response rating [15, 22]: 0
